target: T1, LXRα (Homo sapiens, UniProt Q13133); test: cell-based GAL4-LXRα ligand-binding domain luciferase reporter screen for agonists; details: 10 μM compound; transfected 293 cells; relative to control (no additional compound) assigned a value of 1
T1 construct: expressed in transfected cells; host or cells: 293 cells
T1 sequence (Q13133 209-447 limits assumed): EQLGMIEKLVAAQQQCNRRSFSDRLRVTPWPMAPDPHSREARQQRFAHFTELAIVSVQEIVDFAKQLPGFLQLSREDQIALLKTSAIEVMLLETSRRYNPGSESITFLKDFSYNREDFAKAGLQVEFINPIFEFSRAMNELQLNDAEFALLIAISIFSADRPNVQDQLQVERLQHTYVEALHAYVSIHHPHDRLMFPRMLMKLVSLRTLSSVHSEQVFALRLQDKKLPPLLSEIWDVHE
Protocol: In order to identify agonists for LXRα, a cell-based high throughput screen was developed. Briefly, a DNA-binding domain of the nonreceptor transcription factor GAL4 was fused to the putative ligand-binding domain of LXRα. The resulting construct was introduced into 293 cells, together with an UAS-containing luciferase reporter construct. The transfected cells were then treated with the compounds and luciferase activity was measured. Individual compounds were evaluated relative to a control (no additional compound) at a concentration of 10 μM. Relative luciferase activity is provided below for five of the compounds described in the Examples above (luciferase activity of the control was assigned a value of 1).

| Relative Activity (relative luciferase activity) | Compound |
| --- | --- |
| ≧10 | CC(c1ccco1)N(C(=O)C12CC3CC(CC(C3)C1)C2)c1ccncc1 (centres unmarked) [Example 3] |
| 3 | CC(c1ccco1)N(C(=O)C12CC3CC(CC(C3)C1)C2)c1ccccc1 (centres unmarked) [Example 4] |
| ≧10 | CC(c1ccccn1)N(C(=O)C1(C)CCCCC1)C(C)c1ccco1 (centres unmarked) [Example 5] |

Continued, compound first:

| Compound | Relative Activity (relative luciferase activity) |
| --- | --- |
| CC(c1ccco1)N(C(=O)C12CC3CC(CC(C3)C1)C2)c1ccccn1 (centres unmarked) [Example 1] | 4 |
| CC(c1ccco1)N(C(=O)C12CC3CC(CC(C3)C1)C2)c1cccnc1 (centres unmarked) [Example 2] | 5 |

From patent publication US6906069B1, “LXR modulators” (Amgen Inc., priority 1999, dated 2005)
